The values that follow come from patent publication EP4223882A1, “PROCESS FOR PRODUCING ALDONIC ACIDS” (Vilnius University, priority 2022, dated 2023).

Where two headings read alike, the source gives them in different places.

Data set [1] has as its target T1, PQQGDH (Acinetobacter calcoaceticus, UniProt P13650).
T1 sequence (P13650 25-478): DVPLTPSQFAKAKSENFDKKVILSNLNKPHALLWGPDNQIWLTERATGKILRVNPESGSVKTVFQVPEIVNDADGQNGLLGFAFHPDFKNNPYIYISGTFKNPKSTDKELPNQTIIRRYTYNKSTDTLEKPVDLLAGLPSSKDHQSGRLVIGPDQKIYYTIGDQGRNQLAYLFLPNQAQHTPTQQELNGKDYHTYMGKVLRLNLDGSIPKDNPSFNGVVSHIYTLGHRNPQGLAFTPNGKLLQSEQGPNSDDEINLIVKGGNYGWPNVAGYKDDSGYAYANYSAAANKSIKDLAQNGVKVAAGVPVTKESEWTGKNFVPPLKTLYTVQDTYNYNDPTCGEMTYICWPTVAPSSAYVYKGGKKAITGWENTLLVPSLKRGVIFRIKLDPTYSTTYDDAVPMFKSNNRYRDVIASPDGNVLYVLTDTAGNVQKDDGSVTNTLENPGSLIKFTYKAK
The conditions noted are these: for cmax: sqrt(KM·Ki).

The target in the next data set is T2, horseradish peroxidase (Armoracia rusticana, UniProt P00433).
T2 sequence (P00433 31-338 limits assumed): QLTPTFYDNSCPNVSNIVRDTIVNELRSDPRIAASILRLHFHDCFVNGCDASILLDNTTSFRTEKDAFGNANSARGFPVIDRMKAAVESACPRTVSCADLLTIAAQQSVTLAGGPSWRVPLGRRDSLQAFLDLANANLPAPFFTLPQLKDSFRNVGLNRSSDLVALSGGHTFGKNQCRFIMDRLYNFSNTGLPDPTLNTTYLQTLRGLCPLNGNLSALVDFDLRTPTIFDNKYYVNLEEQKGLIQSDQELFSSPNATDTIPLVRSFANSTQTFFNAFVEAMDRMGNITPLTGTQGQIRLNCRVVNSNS
The conditions noted are these: cited from earlier work.

The target in data set [2] is T1, PQQGDH. The data set can be described thus: biochemical.
Substrate in data set [3]: O=C[C@H](O)[C@@H](O)[C@H](O)CO
In words: purified protein, by the assay type. The settings on record: other: pH 7.0, thionine 220 µM, apparent parameter.

Substrate in data set [4]: O=C[C@H](O)[C@@H](O)[C@@H](O)[C@H](O)CO
In words: purified protein, by the assay type. The settings on record: apparent parameter.

Substrate in data set [5]: O=C[C@H](O)[C@H](O)[C@H](O)CO
In words: purified protein, by the assay type. The conditions noted are these: other: pH 7.0, thionine 220 µM, apparent parameter.

Substrate in data set [6]: OC[C@H]1O[C@@H](O[C@H]2[C@H](O)[C@@H](O)C(O)O[C@@H]2CO)[C@H](O)[C@@H](O)[C@H]1O
The data set can be described thus: purified protein, by the assay type. The settings on record: apparent parameter.

[7] abbreviates: Ki, pH 7.0, thionine 410 µM (asterisk), enzyme inhibition by the substrate constant.
The mark [8] stands for this setting: pH 7.0, thionine 220 µM, substrate concentration at maximal rate.
[9] abbreviates: pH 7.0, thionine 410 µM (asterisk).
The mark [10] stands for this setting: other: pH 7.0, thionine 410 µM (asterisk).

As to `O=C[C@H](O)[C@@H](O)[C@@H](O)[C@H](O)CO` [Galactose], on PQQGDH [1], the “substrate concentration at which the maximal reaction rate was observed (cmax)” value (shortened to “substrate concentration”) is on record as under 20 mM.

With `Nc1ccc2c(c1)Sc1cc(N)ccc1N2` [leuco thionine], the “bimolecular horseradish peroxidase and leuco thionine reactivity constant” value at horseradish peroxidase is 4.8e+08 M⁻¹ s⁻¹.

`O=C[C@H](O)[C@@H](O)[C@H](O[C@@H]1O[C@H](CO)[C@@H](O)[C@H](O)[C@H]1O)[C@H](O)CO` [Cellobiose]: the Ki at PQQGDH [2] is 11 ± 1 mM; at PQQGDH [2] (setting [7]) it was 21 ± 1 mM. Moreover, the “substrate concentration” value on PQQGDH [1] (grouping of substrates) is under 20 mM. For the same molecule, the cmax on PQQGDH [1] (setting [8]) is 2.4 ± 0.2 mM; on PQQGDH [1] (setting [9]), 3.3 ± 0.2 mM.

As to `O=C[C@H](O)[C@@H](O)[C@H](O)CO` [Xylose], at PQQGDH [1] (grouping of substrates), the “substrate concentration” value was over 20 mM. The cmax on PQQGDH [1] (setting [8]) was 88 ± 8 mM.

As for `O=C[C@@H](O)[C@@H](O)[C@H](O)CO` [Lyxose], the “substrate concentration” value at PQQGDH [1] (grouping of substrates) was over 20 mM. Besides, the Vmax at PQQGDH [1] (pH 7.0, thionine 220 µM, apparent parameter) is 190 ± 40 s⁻¹. Besides, the cmax at PQQGDH [1] (setting [8]) is given as >10^4 mM.

With `O=C[C@H](O)[C@H](O)[C@H](O)CO` [Ribose], the “substrate concentration” value at PQQGDH [1] (grouping of substrates) was over 20 mM. Further, at PQQGDH [1] (setting [8]), the cmax was 84 ± 39 mM.

Turning to `OC[C@H]1O[C@@H](O[C@H]2[C@H](O)[C@@H](O)C(O)O[C@@H]2CO)[C@H](O)[C@@H](O)[C@H]1O` (stereo partly shown) [Lactose], the figures for the Ki on PQQGDH [2] and at PQQGDH [2] (setting [7]) were 25 ± 2 mM and 51 ± 2 mM, respectively. The “substrate concentration” value on PQQGDH [1] (grouping of substrates) is recorded as under 20 mM. The cmax at PQQGDH [1] (setting [8]) is 5.2 ± 0.9 mM; at PQQGDH [1] (setting [9]), 6.4 ± 0.4 mM.

B1: PQQGDH (Acinetobacter calcoaceticus) (protein)
chain: T1 sequence (P13650 25-478)
With B1, the Km in data set [3] was found to be 7100 ± 300 µM; in data set [4] (other: pH 7.0, thionine 220 µM), 2400 ± 200 µM; in data set [4] (setting [10]), 1800 ± 100 µM; in data set [5] it was 21000 ± 5000 µM; in data set [6] (other: pH 7.0, thionine 220 µM), 1500 ± 100 µM; in data set [6] (setting [10]) it was 610 ± 20 µM. For the same molecule, the kcat was 460 ± 20 s⁻¹ in data set [3]; 350 ± 30 s⁻¹ in data set [4] (other: pH 7.0, thionine 220 µM); 349 ± 2 s⁻¹ in data set [4] (setting [10]); 250 ± 60 s⁻¹ in data set [5]; 380 ± 50 s⁻¹ in data set [6] (other: pH 7.0, thionine 220 µM); 430 ± 10 s⁻¹ in data set [6] (setting [10]).

What is called Ki is the dissociation constant of the complex between target and ligand, obtained from inhibition or displacement. One may read the Km as the substrate concentration at which the rate is half of its maximum. By kcat is commonly meant the number of substrate molecules converted per active site and unit of time at saturation.
